Structures are written as SMILES.

The nature of this assay: Blockade of CNGA1/CNGB1 expressed in Xenopus oocyte by electrophysiological method.

The compound `CCCCCCCCNc1ccc(C(=O)OCC[N+](C)(C)CC)cc1` showed a Kd of 1.6 µM.

Take `CCCCNc1ccc(C(=O)OCCN(CCCC)CCCC)cc1`: the Kd is 1.1 µM.

`CCCCNc1ccc(C(=O)OCCCN(C)C)cc1` had a Kd of 5 µM.

`CCCCNc1ccc(C(=O)OCCCCN(C)C)cc1` registered a Kd of 7.1 µM.

As to `CCCCCCCCNc1ccc(C(=O)OCCN(C)C)cc1`, the Kd stood at 1.3 µM.

As to `CN(C)CCOC(=O)c1ccc(NC2CCCCC2)cc1`, the Kd amounted to 17 µM.

Compound `CN(C)CCOC(=O)c1ccc(NCc2ccccc2)cc1` yielded a Kd of 16 µM.

With `CC(C)CNc1ccc(C(=O)OCCN(C)C)cc1`, the Kd amounted to 20 µM.

Compound `CCCCNc1ccc(C(=O)OCCCN(CC)CC)cc1` displayed a Kd of 5.6 µM.

Regarding `CCCCNc1ccc(C(=O)OCCCN(CCCC)CCCC)cc1`, binding was characterised by a dissociation constant (Kd) of 1.3 µM.

Take `CCCCNc1ccc(C(=O)OCCCCN(CCCC)CCCC)cc1`: the Kd worked out at 1.3 µM.

The compound `CCCCCCNc1ccc(C(=O)OCCN(C)C)cc1` returned a Kd of 3.8 µM.

For `CCCCNc1ccc(C(=O)OCCN(CC)CC)cc1` [P-BUTYLAMINOBENZOYLDIETHYLAMINOETHYL], the Kd turned out to be 8.5 µM.

One may read the Kd as a measure of binding affinity in units of concentration. Low values mean a tighter complex, high ones a looser complex.

Source of the values: ChEMBL document CHEMBL1140802 (Bioorg Med Chem Lett, 2008).
